Assay results from patent US12065430B2, “Indazole compound or salt thereof” (TAIHO PHARMACEUTICAL CO., LTD., priority 2018, dated 2024).
pIC50: −log10 of the molar value.

Assays:
[1] = tested on: cancer cells with KRAS G12C mutation; details: reported in PTL 1 and NPL 2; cited from earlier work
[2] = target: G12C mutant of inactive KRAS (GDP) (Homo sapiens (Human), UniProt P01116, G12C); details: reported in PTL 1 and NPL 2; cited from earlier work
[3] = tested on: tumor-bearing mice expressing KRAS G12C mutation; details: reported in PTL 2 and NPL 3; cited from earlier work
NCI-H358 cells = test: Growth inhibition activity on KRAS-G12C mutant cell line (NCI-H358) (in vitro, CellTiter-Glo2.0); type: cell-based; details: Homo sapiens, NCI-H358, 72 h, 3-day culture in the presence of the compound
Experimental: NCI-H358 cells (ATCC, Cat #: CRL-5807), which are a KRAS-G12C mutant human lung cancer cell line, were suspended in a 10% fetal bovine serum-containing RPMI1640 medium (manufactured by Fujifilm Wako Pure Chemical Corporation.). The cell suspension was seeded into each well of a 384-well flat-bottom microplate and cultured in an incubator containing 5% CO2 gas at 37° C. for 1 day. The test compound was dissolved in DMSO, and diluted with DMSO to give a concentration 500 times the final concentration. The solution of the test compound in DMSO was diluted with the medium used for suspending cells and added to each well of the cell-culture plate to give a DMSO final concentration of 0.2%, followed by culture in an incubator containing 5% CO2 gas at 37° C. for another 3 days. The cell count after 3-day culture in the presence of the compound was measured using CellTiter-Glo2.0 (manufactured by Promega Corporation) in accordance with the protocol recommended by Promega Corporation. The growth inhibition rate was calculated from the following equation, and the concentration of the test compound at which 50% inhibition was achieved (IC50 (nM)) was determined. […] Growth Inhibition Rate (%)=(C−T)/(C)×100 • T: the emission intensity in a well into which a test compound was added. • C: the emission intensity in a well into which a test compound was not added.

G12C K-Ras4B (1-169) = G12C K-Ras4B (1-169) (Homo sapiens (Human), UniProt P01116, G12C); test: Test of compounds on whether to bind to KRASG12C (LC-MS compound binding rate); details: final compound concentration of 2 μM, 1 μM protein, 25° C. for 2 hours
Outline: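 K-Ras4B (1-169) WT and G12C (1 μM each, mixed) in 1×TBS, 0.1 mM TCEP incubated with compound (final 2 μM) 2 h at 25° C; quenched with 0.2% formic acid. Intact-protein LC-MS (ESI+, deconvoluted); binding rate = adduct signal/(adduct + unbound signal), giving selectivity over WT.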

KRAS G12C = KRAS G12C (Homo sapiens (Human), UniProt P01116, G12C); test: Inhibitory activity on KRAS G12C nucleotide (GDP-GTP) exchange reaction (Bodipy FL GDP, SOS1, GppNHp); type: biochemical; details: preincubation at 25° C. for 4 hours; SOS1 100 nM, GppNHp 1 μM, reaction 30 minutes
Experimental: The inhibitory activity of compounds on exchange reaction of GDP into GppNHp in Bodipy (trademark) FL-bound KRAS G12C was examined by fluorescence measurement using human recombinant KRAS G12C and SOS1 proteins.
For the preparation of KRAS G12C to which Bodipy FL GDP was bound, first, 50 μM^y KRAS G12C (amino acid region: 1-169) and 1 mM Bodipy FL GDP (Invitrogen, G22360) were incubated for 1 hour in a buffer (20 mM Tris-HCl (pH 7.5), 50 mM NaCl, 1 mM DTT) in ice in the presence of 2.5 mM EDTA. Thereafter, MgCl2 with a final concentration of 10 mM was added, and the mixture was incubated at room temperature for 30 minutes. The protein was allowed to pass through a NAP-5 column to remove free nucleotides and was used for compound evaluation.
For the measurement of the inhibitory activity of compounds on nucleotide exchange reaction, first, the compound of the present invention was diluted stepwise with dimethyl sulfoxide (DMSO). […] The change in fluorescence intensity of Bodipy FL (excitation wavelength: 485 nm, fluorescence wavelength: 520 nm) immediately after the start of reaction and after 30 minutes from the start of reaction was standardized. […]

Sequence of G12C mutant of inactive KRAS (GDP) (P01116-2 other isoform, or with tags, fused parts or gaps G12C): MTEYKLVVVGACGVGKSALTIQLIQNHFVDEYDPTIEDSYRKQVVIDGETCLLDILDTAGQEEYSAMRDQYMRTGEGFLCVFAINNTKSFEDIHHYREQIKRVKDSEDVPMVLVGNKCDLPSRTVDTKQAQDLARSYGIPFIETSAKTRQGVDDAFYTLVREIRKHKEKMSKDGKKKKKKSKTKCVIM

| Compound | pIC50 (NCI-H358 cells) | binding rate for G12C K-Ras4B (1-169) (G12C K-Ras4B (1-169)) | also measured |
| --- | --- | --- | --- |
| C=CC(=O)N1CC(N2CCN(C(=O)CNc3cc(C4(C)CC4)c(Cl)cc3O)CC2)C1 [ARS-853] | – | – | induction of apoptosis [1]: inducing apoptosis in cancer cells with KRAS G12C mutation; binding to the cysteine of the G12C mutant of inactive KRAS (GDP) [2]: binds to the cysteine of the G12C mutant of inactive KRAS (GDP) |
| C=CC(=O)N1CCN(c2ncnc3c(F)c(-c4c(O)cccc4F)c(Cl)cc23)CC1 [ARS-1620] | – | – | antitumor action [3]: exerts antitumor action in tumor-bearing mice expressing KRAS G12C mutation |
| C=CC(=O)N1CC(NC(=O)c2c(Cl)nc(CNc3n[nH]c4cc(Cl)c(C(C)(C)C)cc34)n2C2CCCC2)C1 [Example 105, N-(1-acryloylazetidin-3-yl)-2-(((5-(tert-butyl)-6-chloro-1H-indazol-3-yl)amino)methyl)-4-chloro-1-cyclopentyl-1H-imidazole-5-carboxamide] | 7.12 | A (a binding rate of 80% or more is rated “A,”) | – |
| C=CC(=O)N1CC(NC(=O)c2c(Cl)nc(CNc3n[nH]c4cc(Cl)c(C(C)(C)C)cc34)n2C2CN(C(=O)OC(C)(C)C)C2)C1 [Example 106, Tert-butyl 3-(5-((1-acryloylazetidin-3-yl)carbamoyl)-2-(((5-(tert-butyl)-6-chloro-1H-indazol-3-yl)amino)methyl)-4-chloro-1H-imidazol-1-yl)azetidine-1-carboxylate] | 7.38 | A (a binding rate of 80% or more is rated “A,”) | – |
| C=CC(=O)N1CC(NC(=O)c2c(Cl)nc(CNc3n[nH]c4cc(Cl)c(C(C)(C)C)cc34)n2C2CN(C(C)C)C2)C1 [Example 107, N-(1-acryloylazetidin-3-yl)-2-(((5-(tert-butyl)-6-chloro-1H-indazol-3-yl)amino)methyl)-4-chloro-1-(1-isopropylazetidin-3-yl)-1H-imidazole-5-carboxamide] | 7.11 | A (a binding rate of 80% or more is rated “A,”) | – |
| C=CC(=O)N1CC(NC(=O)c2c(Cl)nc(CNc3n[nH]c4cc(Cl)c(C(C)(C)C)cc34)n2[C@H]2CC[C@@H](OC)CC2)C1 [Example 112, N-(1-acryloylazetidin-3-yl)-2-(((5-(tert-butyl)-6-chloro-1H-indazol-3-yl)amino)methyl)-4-chloro-1-(4-methoxycyclohexyl)-1H-imidazole-5-carboxamide] | 7.28 | A (a binding rate of 80% or more is rated “A,”) | pIC50 (KRAS G12C): 8.30 |
| C=CC(=O)N1CC(NC(=O)c2c(Cl)nc(CNc3n[nH]c4cc(Cl)c(C(C)(C)C)cc34)n2[C@@H]2CCN(C(C)C)C2)C1 [Example 114, (R)—N-(1-acryloylazetidin-3-yl)-2-(((5-(tert-butyl)-6-chloro-1H-indazol-3-yl)amino)methyl)-4-chloro-1-(1-isopropylpyrrolidin-3-yl)-1H-imidazole-5-carboxamide] | 7.49 | A (a binding rate of 80% or more is rated “A,”) | – |
| C=CCN1CC[C@@H](n2c(CNc3n[nH]c4cc(Cl)c(C(C)(C)C)cc34)nc(Cl)c2C(=O)NC2CN(C(=O)C=C)C2)C1 [Example 123, (R)—N-(1-acryloylazetidin-3-yl)-1-(1-allylpyrrolidin-3-yl)-2-(((5-(tert-butyl)-6-chloro-1H-indazol-3-yl)amino)methyl)-4-chloro-1H-imidazole-5-carboxamide] | 7.68 | A (a binding rate of 80% or more is rated “A,”) | – |
| C=CC(=O)N1CC(NC(=O)c2c(Cl)nc(CNc3n[nH]c4cc(Cl)c(C(C)(C)C)cc34)n2[C@@H]2CCN(c3ccccn3)C2)C1 [Example 124, (R)—N-(1-acryloylazetidin-3-yl)-2-(((5-(tert-butyl)-6-chloro-1H-indazol-3-yl)amino)methyl)-4-chloro-1-(1-(pyridin-2-yl)pyrrolidin-3-yl)-1H-imidazole-5-carboxamide] | 7.72 | A (a binding rate of 80% or more is rated “A,”) | – |
| C=CC(=O)N1CC(NC(=O)c2c(Cl)nc(CNc3n[nH]c4cc(Cl)c(C(C)(C)C)cc34)n2[C@@H]2C[C@@H](C)N(CC(F)F)C2)C1 [Example 126, N-(1-acryloylazetidin-3-yl)-2-(((5-(tert-butyl)-6-chloro-1H-indazol-3-yl)amino)methyl)-4-chloro-1-((3R,5R)-1-(2,2-difluoroethyl)-5-methylpyrrolidin-3-yl)-1H-imidazole-5-carboxamide] | 7.46 | A (a binding rate of 80% or more is rated “A,”) | – |
